Key:
Assay type in all cases: cell-based
SW-620 (colon cancer) = assay: NCI-60 SRB cytotoxicity screen; conditions: Homo sapiens; SW-620, single dose 10 μM; read-out: growth inhibition (GI%)
HCT-116 (colon cancer) = assay: NCI-60 SRB cytotoxicity screen; conditions: Homo sapiens; HCT-116, single dose 10 μM; read-out: growth inhibition (GI%)
OVCAR-5 (ovarian cancer) = assay: NCI-60 SRB cytotoxicity screen; conditions: Homo sapiens; OVCAR-5, single dose 10 μM; read-out: growth inhibition (GI%)
SNB-19 (CNS cancer) = assay: NCI-60 SRB cytotoxicity screen; conditions: Homo sapiens; SNB-19, single dose 10 μM; read-out: growth inhibition (GI%)
RXF 393 (renal cancer) = assay: NCI-60 SRB cytotoxicity screen; conditions: Homo sapiens; RXF 393, single dose 10 μM; read-out: growth inhibition (GI%)
[1] = test system: HOP-92 (non-small cell lung cancer); assay: NCI-60 SRB cytotoxicity screen; conditions: Homo sapiens; HOP-92, single dose 10 μM; read-out: growth inhibition (GI%)
DU-145 (prostate cancer) = assay: NCI-60 SRB cytotoxicity screen; conditions: Homo sapiens; DU-145, single dose 10 μM; read-out: growth inhibition (GI%)
OVCAR-3 (ovarian cancer) = assay: NCI-60 SRB cytotoxicity screen; conditions: Homo sapiens; OVCAR-3, single dose 10 μM; read-out: growth inhibition (GI%)
MDA-MB-435 (melanoma) = assay: NCI-60 SRB cytotoxicity screen; conditions: Homo sapiens, MDA-MB-435, read-out: growth inhibition (GI%);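 further: growth inhibition in percent at a single 10 µM dose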
SN12C (renal cancer) = assay: NCI-60 SRB cytotoxicity screen; conditions: Homo sapiens, single dose 10 μM, read-out: growth inhibition (GI%)
[2] = test system: 60 cancer cell lines (NCI); assay: NCI-60 single-dose screen, overall verdict over the panel; conditions: single dose 10 μM, whole panel
Description: (§1) The cytotoxic activity of the synthesized quinoline derivatives was determined by the national cancer institute (NCI, Bethesda, Maryland, USA) against 60 different cancer cell lines at a single high dose (10^−5 M) in the full NCI 60 cell panel using the sulforhodamine B assay for cell viability evaluation. In summary, 5 × 10^3 cells were in 96-well plate and incubated in complete media for 24 h. Cells were treated with 100 μL of media containing each newly synthesized compound. After drug exposure, cells were fixed by replacing media with 150 μL of 10% TCA and incubated at 4 °C for 1 h. The TCA solution was removed, and the cells were washed 5 times with distilled water. Aliquots of 70 μL SRB solution (0.4% w/v) were added and incubated in a dark place at room temperature for 10 min. The plates were washed 3 times with 1% acetic acid and allowed to air-dry overnight. Then, 150 μL of TRIS (10 mM) was added to dissolve protein-bound SRB stain. The absorbance was measured at 540 nm.% Cytotoxicity = [1 − (AVx/AVNC)] × 100where AVx denotes the average absorbance of the sample well and AVNC denotes the average absorbance of the negative control.

[3] = test system: MDA-MB-468 (breast cancer); assay: NCI-60 SRB cytotoxicity screen; conditions: Homo sapiens; MDA-MB-468, single dose 10 μM; read-out: growth inhibition (GI%)
Description: as §1
The methodology of the NCI anticancer screening has been described in details at (http://www.dtp.nci.nih.gov). The anticancer assay was performed in full NCI 60 cell lines derived from nine tumor subpanels, including leukemia, lung, colon, CNS, melanoma, ovarian, renal, prostate, and breast cancer cell lines.
The cell lines were first cultured for 48 h, after being exposed to a single dosage of the compound. Using the protein-binding dye sulforhodamine B dye, cell proliferation and viability were evaluated (SRB assay). The results were presented for each chemical as GI%. Compound that met NCI criteria for substantial activity were further evaluated using a five-dose experiment. The NCI60 cell lines were treated with the chemicals in this assay at five different concentration levels (0.01, 0.1, 1, 10, and 100 μM).

SK-MEL-2 (melanoma) = assay: NCI-60 SRB cytotoxicity screen; conditions: Homo sapiens; SK-MEL-2, single dose 10 μM; read-out: growth inhibition (GI%)
SF-268 (CNS cancer) = assay: NCI-60 SRB cytotoxicity screen; conditions: Homo sapiens; SF-268, single dose 10 μM; read-out: growth inhibition (GI%)
CAKI-1 (renal cancer) = assay: NCI-60 SRB cytotoxicity screen; conditions: Homo sapiens; CAKI-1, single dose 10 μM; read-out: growth inhibition (GI%)
LOX IMVI (melanoma) = assay: NCI-60 SRB cytotoxicity screen; conditions: Homo sapiens, single dose 10 μM, read-out: growth inhibition (GI%)
U251 (CNS cancer) = assay: NCI-60 SRB cytotoxicity screen; conditions: Homo sapiens, U-251; U251, single dose 10 μM; read-out: growth inhibition (GI%)
TK-10 (renal cancer) = assay: NCI-60 SRB cytotoxicity screen; conditions: Homo sapiens; TK-10, single dose 10 μM; read-out: growth inhibition (GI%)
HCC-2998 (colon cancer) = assay: NCI-60 SRB cytotoxicity screen; conditions: Homo sapiens; HCC-2998, single dose 10 μM; read-out: growth inhibition (GI%)
[4] = test system: NCI-H322M (non-small cell lung cancer); assay: NCI-60 SRB cytotoxicity screen; conditions: Homo sapiens, single dose 10 μM, read-out: growth inhibition (GI%)
SK-MEL-5 (melanoma) = assay: NCI-60 SRB cytotoxicity screen; conditions: Homo sapiens; SK-MEL-5, single dose 10 μM; read-out: growth inhibition (GI%)
COLO 205 (colon cancer) = assay: NCI-60 SRB cytotoxicity screen; conditions: Homo sapiens; COLO 205, single dose 10 μM; read-out: growth inhibition (GI%)
OVCAR-4 (ovarian cancer) = assay: NCI-60 SRB cytotoxicity screen; conditions: Homo sapiens; OVCAR-4, single dose 10 μM; read-out: growth inhibition (GI%)
M14 (melanoma) = assay: NCI-60 SRB cytotoxicity screen; conditions: Homo sapiens; M14, single dose 10 μM; read-out: growth inhibition (GI%)
SR (leukemia) = assay: NCI-60 SRB cytotoxicity screen; conditions: single dose 10 μM, read-out: growth inhibition (GI%)

| SMILES | inhibition at 10 µM (SW-620 (colon cancer)) | inhibition at 10 µM (HCT-116 (colon cancer)) | inhibition at 10 µM (OVCAR-5 (ovarian cancer)) | inhibition at 10 µM (SNB-19 (CNS cancer)) | inhibition at 10 µM (RXF 393 (renal cancer)) | inhibition at 10 µM [1] | inhibition at 10 µM (DU-145 (prostate cancer)) | inhibition at 10 µM (MDA-MB-435 (melanoma)) | inhibition at 10 µM (SN12C (renal cancer)) | inhibition at 10 µM (SK-MEL-2 (melanoma)) | inhibition at 10 µM (SF-268 (CNS cancer)) | inhibition at 10 µM (CAKI-1 (renal cancer)) | inhibition at 10 µM (LOX IMVI (melanoma)) | inhibition at 10 µM (U251 (CNS cancer)) | inhibition at 10 µM (TK-10 (renal cancer)) | inhibition at 10 µM (HCC-2998 (colon cancer)) | inhibition at 10 µM [4] | inhibition at 10 µM (SK-MEL-5 (melanoma)) | inhibition at 10 µM (COLO 205 (colon cancer)) | inhibition at 10 µM (OVCAR-4 (ovarian cancer)) | also measured |
| --- | --- | --- | --- | --- | --- | --- | --- | --- | --- | --- | --- | --- | --- | --- | --- | --- | --- | --- | --- | --- | --- |
| CCc1cccc2cc(-c3cc(-c4ccc(F)cc4)[nH]c(=O)c3C#N)c(Cl)nc12 [Compound 4d, 4-(2-Chloro-8-ethylquinolin-3-yl)-6-(4-fluorophenyl)-2-oxo-1,2-dihydropyridine-3-carbonitrile] | < 10% | < 10% | < 10% | < 10% | < 10% | < 10% | < 10% | < 10% | < 10% | < 10% | < 10% | 19.5% | 15.3% | < 10% | < 10% | < 10% | < 10% | 16.8% | < 10% | 11% | inhibition at 10 µM (OVCAR-3 (ovarian cancer)): < 10%; cytotoxic activity over the cell lines (in words) [2]: mild cytotoxic activity; inhibition at 10 µM [3]: < 10% |
| CCc1cccc2cc(C3C=C(c4ccc(Br)cc4)NC(=S)N3)c(Cl)nc12 (centres unmarked) [Compound 6e, 6-(4-Bromophenyl)-4-(2-chloro-8-ethylquinolin-3-yl)-3,4-dihydropyrimidine-2(1H)-thione] | < 10% | 10.5% | < 10% | < 10% | < 10% | < 10% | < 10% | < 10% | < 10% | < 10% | < 10% | 10.4% | < 10% | < 10% | < 10% | < 10% | < 10% | < 10% | < 10% | 10.2% | inhibition at 10 µM (OVCAR-3 (ovarian cancer)): < 10%; inhibition at 10 µM (M14 (melanoma)): < 10%; cytotoxic activity over the cell lines (in words) [2]: limited cytotoxic activity; inhibition at 10 µM [3]: < 10% |
| CCc1cccc2cc(C3C=C(c4ccc(F)cc4)NC(=S)N3)c(Cl)nc12 (centres unmarked) [Compound 6d, 4-(2-Chloro-8-ethylquinolin-3-yl)-6-(4-fluorophenyl)-3,4-dihydropyrimidine-2(1H)-thione] | < 10% | 21.5% | < 10% | < 10% | < 10% | < 10% | < 10% | < 10% | < 10% | < 10% | 14.9% | 26.1% | < 10% | < 10% | < 10% | < 10% | < 10% | < 10% | < 10% | 21% | inhibition at 10 µM (OVCAR-3 (ovarian cancer)): < 10%; inhibition at 10 µM (M14 (melanoma)): 10.8%; cytotoxic activity over the cell lines (in words) [2]: limited cytotoxic activity |
| CCc1cccc2cc(-c3cc(-c4ccc(F)cc4)[nH]c(=S)c3C#N)c(Cl)nc12 [Compound 5d, 4-(2-Chloro-8-ethylquinolin-3-yl)-6-(4-fluorophenyl)-2-thioxo-1,2-dihydropyridine-3-carbonitrile] | < 10% | < 10% | < 10% | 10.5% | < 10% | 11.4% | – | < 10% | < 10% | < 10% | 21% | 31.1% | 12.4% | < 10% | < 10% | < 10% | 12.4% | 15.3% | < 10% | 13.3% | inhibition at 10 µM (M14 (melanoma)): < 10%; cytotoxic activity over the cell lines (in words) [2]: slight cytotoxic activity; inhibition at 10 µM [3]: 14% |
| CCc1cccc2cc(C=CC(=O)c3ccc(Br)cc3)c(Cl)nc12 [Compound 3e, 1-(4-Bromophenyl)-3-(2-chloro-8-ethylquinolin-3-yl)prop-2-en-1-one] | < 10% | < 10% | < 10% | < 10% | < 10% | < 10% | < 10% | < 10% | < 10% | < 10% | < 10% | 12.8% | < 10% | < 10% | < 10% | < 10% | < 10% | < 10% | < 10% | < 10% | inhibition at 10 µM (OVCAR-3 (ovarian cancer)): < 10%; inhibition at 10 µM (M14 (melanoma)): < 10%; cytotoxic activity over the cell lines (in words) [2]: low cytotoxic activity; inhibition at 10 µM [3]: < 10% |
| CCc1cccc2cc(C=CC(=O)c3ccc(OC)cc3)c(Cl)nc12 [Compound 3a, 3-(2-Chloro-8-ethylquinolin-3-yl)-1-(4-methoxyphenyl)prop-2-en-1-one] | < 10% | < 10% | < 10% | < 10% | 23.8% | 27.3% | < 10% | < 10% | < 10% | < 10% | < 10% | 19.3% | 11.3% | 17.9% | < 10% | < 10% | < 10% | < 10% | < 10% | 13.5% | inhibition at 10 µM (OVCAR-3 (ovarian cancer)): < 10%; inhibition at 10 µM (M14 (melanoma)): < 10%; inhibition at 10 µM [3]: < 10%; inhibition at 10 µM (SR (leukemia)): 38.4% |
